Measured values from patent US11078197B2, “5-membered and bicyclic heterocyclic amides as inhibitors of rock” (BRISTOL-MYERS SQUIBB COMPANY, priority 2017, dated 2021).

These compounds were tested against ROCK2 (Homo sapiens (Human), UniProt O75116) (assay: ROCK2 assay (peptide phosphorylation, LABCHIP 3000 Reader)). Conditions: 5 μM ATP, 1.5 μM peptide substrate, dose-response.
Assay type: biochemical
Method: After incubation, the reaction was terminated by the addition of EDTA and the phosphorylated and non-phosphorylated peptides separated using a LABCHIP®3000 Reader (Caliper Life Sciences). […] Compounds were tested in dose-response format, and the inhibition of kinase activity was calculated at each concentration of compound. […] Representative Examples were tested in the ROCK2 assay described above and found having ROCK2 inhibitory activity.

Chain of ROCK2 (O75116 whole entry, species assumed): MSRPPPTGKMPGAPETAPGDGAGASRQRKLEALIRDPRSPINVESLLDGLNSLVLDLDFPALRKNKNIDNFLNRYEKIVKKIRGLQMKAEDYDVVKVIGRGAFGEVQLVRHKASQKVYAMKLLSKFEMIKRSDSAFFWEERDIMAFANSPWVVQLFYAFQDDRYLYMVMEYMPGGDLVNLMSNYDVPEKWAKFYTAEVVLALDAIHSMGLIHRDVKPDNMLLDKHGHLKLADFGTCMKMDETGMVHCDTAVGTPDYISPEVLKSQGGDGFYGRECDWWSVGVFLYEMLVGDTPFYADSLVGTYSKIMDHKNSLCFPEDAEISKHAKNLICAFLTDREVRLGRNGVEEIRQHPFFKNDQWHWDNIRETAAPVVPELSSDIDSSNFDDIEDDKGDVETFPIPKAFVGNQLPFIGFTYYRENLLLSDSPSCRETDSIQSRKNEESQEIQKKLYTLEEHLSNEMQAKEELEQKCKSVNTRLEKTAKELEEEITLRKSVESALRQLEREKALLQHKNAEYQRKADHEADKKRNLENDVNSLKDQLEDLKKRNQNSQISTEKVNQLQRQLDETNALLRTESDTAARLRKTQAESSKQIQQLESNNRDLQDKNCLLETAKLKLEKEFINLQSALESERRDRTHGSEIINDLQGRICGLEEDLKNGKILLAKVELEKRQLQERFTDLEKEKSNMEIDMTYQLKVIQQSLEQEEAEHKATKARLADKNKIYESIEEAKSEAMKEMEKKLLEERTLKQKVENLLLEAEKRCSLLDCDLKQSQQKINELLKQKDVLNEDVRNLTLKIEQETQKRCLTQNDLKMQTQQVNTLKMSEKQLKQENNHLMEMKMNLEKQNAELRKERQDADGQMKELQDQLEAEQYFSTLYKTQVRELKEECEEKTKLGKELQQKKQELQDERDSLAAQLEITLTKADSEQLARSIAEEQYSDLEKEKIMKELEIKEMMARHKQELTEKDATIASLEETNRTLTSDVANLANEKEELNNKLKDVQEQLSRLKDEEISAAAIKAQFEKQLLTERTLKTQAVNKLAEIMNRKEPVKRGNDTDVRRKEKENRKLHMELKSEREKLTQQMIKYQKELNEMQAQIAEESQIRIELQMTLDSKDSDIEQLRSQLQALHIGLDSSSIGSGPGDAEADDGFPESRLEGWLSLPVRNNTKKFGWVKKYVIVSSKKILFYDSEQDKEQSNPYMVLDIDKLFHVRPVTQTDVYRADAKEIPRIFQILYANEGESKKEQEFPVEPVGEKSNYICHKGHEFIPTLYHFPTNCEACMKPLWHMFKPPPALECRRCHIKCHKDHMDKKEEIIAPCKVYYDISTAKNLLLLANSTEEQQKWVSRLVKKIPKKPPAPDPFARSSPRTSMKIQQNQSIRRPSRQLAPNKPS

SMILES | IC50
NC(=O)c1sc(C2CC2)nc1O[C@H]1C[C@]2(C1)C[C@H](N1C(=O)NC(Cc3cccnc3)C1=O)C2 (stereo partly drawn) [Example 107, 2-cyclopropyl-4-{[(aR)-6-{2,5-dioxo-4-[(pyridin-3-yl)methyl]imidazolidin-1-yl}spiro[3.3]heptan-2-yl]oxy}-1,3-thiazole-5-carboxamide] | 1830 nM
CCC1NC(=O)N([C@H]2C[C@@]3(C[C@H](Oc4nc(C5CC5)sc4C(N)=O)C3)C2)C1=O (stereo partly drawn) [Example 108, 2-cyclopropyl-4-{[(aR)-6-(4-ethyl-2,5-dioxoimidazolidin-1-yl)spiro[3.3]heptan-2-yl]oxy}-1,3-thiazole-5-carboxamide] | 1870 nM
COc1nc(O[C@H]2CC3(C[C@H](NC(=O)c4cnn(-c5ccc(C#N)cc5)c4C)C3)C2)c(C(N)=O)s1 (stereo partly drawn) [Example 112, 4-(((2S,4s,6)-6-(1-(4-cyanophenyl)-5-methyl-1H-pyrazole-4-carboxamido)spiro[3.3]heptan-2-yl)oxy)-2-methoxythiazole-5-carboxamide] | 205 nM
COc1nc(O[C@H]2C[C@@]3(C[C@H](NC(=O)c4cnn(-c5ccc(Cl)cc5)c4C)C3)C2)c(C(N)=O)s1 (stereo partly shown) [Example 113, 2-methoxy-4-{[(4s)-6-[1-(4-chlorophenyl)-5-methyl-1H-pyrazole-4-amido]spiro[3.3]heptan-2-yl]oxy}-1,3-thiazole-5-carboxamide] | 53.1 nM
COc1nc(O[C@H]2C[C@@]3(C[C@H](NC(=O)c4cnn(-c5ccc(C(F)(F)F)cn5)c4C)C3)C2)c(C(N)=O)s1 (stereo partly shown) [Example 114, 2-methoxy-4-{[(4s)-6-{5-methyl-1-[5-(trifluoromethyl)pyridin-2-yl]-1H-pyrazole-4-amido}spiro[3.3]heptan-2-yl]oxy}-1,3-thiazole-5-carboxamide] | 115 nM
COc1nc(O[C@H]2C[C@@]3(C[C@H](NC(=O)c4cnn5cc(OCC(F)F)ccc45)C3)C2)c(C(N)=O)s1 (stereo partly shown) [Example 115, 2-methoxy-4-{[(4s)-6-[6-(2,2-difluoroethoxy)pyrazolo[1,5-a]pyridine-3-amido]spiro[3.3]heptan-2-yl]oxy}-1,3-thiazole-5-carboxamide] | 31.2 nM
COc1nc(O[C@H]2C[C@@]3(C[C@H](NC(=O)c4cnn5cc(OCC(O)(C(F)(F)F)C(F)(F)F)ccc45)C3)C2)c(C(N)=O)s1 (stereo partly shown) [Example 116, 2-methoxy-4-{[(4s)-6-{6-[3,3,3-trifluoro-2-hydroxy-2-(trifluoromethyl)propoxy]pyrazolo[1,5-a]pyridine-3-amido}spiro[3.3]heptan-2-yl]oxy}-1,3-thiazole-5-carboxamide] | 71.6 nM
COc1nc(O[C@H]2C[C@@]3(C[C@H](NC(=O)c4cnn5cc(OCC(F)(F)F)ccc45)C3)C2)c(C(N)=O)s1 (stereo partly shown) [Example 117, 2-methoxy-4-{[(4s)-6-[6-(2,2,2-trifluoroethoxy)pyrazolo[1,5-a]pyridine-3-amido]spiro[3.3]heptan-2-yl]oxy}-1,3-thiazole-5-carboxamide] | 58.7 nM
Cc1c(C(=O)N[C@H]2C[C@]3(C2)C[C@H](Oc2nn4ccccc4c2C(N)=O)C3)cnn1-c1ccc(C#N)cc1 (stereo partly shown) [Example 118, 1-(4-cyanophenyl)-5-methyl-N-[(4s)-6-({3-carbamoylpyrazolo[1,5-a]pyridin-2-yl}oxy)spiro[3.3]heptan-2-yl]-1H-pyrazole-4-carboxamide] | 639 nM
Cc1c(C(=O)N[C@H]2C[C@]3(C2)C[C@H](Oc2nn4ccccc4c2C(N)=O)C3)cnn1-c1ccc(Cl)cc1 (stereo partly shown) [Example 119, 1-(4-chlorophenyl)-5-methyl-N-[(4s)-6-({3-carbamoylpyrazolo[1,5-a]pyridin-2-yl}oxy)spiro[3.3]heptan-2-yl]-1H-pyrazole-4-carboxamide] | 351 nM
Cc1c(C(=O)N[C@H]2C[C@]3(C2)C[C@H](Oc2nn4ccccc4c2C(N)=O)C3)cnn1-c1ccc(C(F)(F)F)cn1 (stereo partly shown) [Example 120, 5-methyl-N-[(4s)-6-({3-carbamoylpyrazolo[1,5-a]pyridin-2-yl}oxy)spiro[3.3]heptan-2-yl]-1-[5-(trifluoromethyl)pyridin-2-yl]-1H-pyrazole-4-carboxamide] | 805 nM
CC(C)(O)COc1ccc2c(C(=O)N[C@H]3C[C@]4(C3)C[C@H](Oc3nn5ccccc5c3C(N)=O)C4)nn(C(F)F)c2c1 (stereo partly shown) [Example 121, 1-(difluoromethyl)-6-(2-hydroxy-2-methylpropoxy)-N-[(4s)-6-({3-carbamoylpyrazolo[1,5-a]pyridin-2-yl}oxy)spiro[3.3]heptan-2-yl]-1H-indazole-3-carboxamide] | 18.3 nM
NC(=O)c1c(O[C@H]2C[C@@]3(C[C@H](NC(=O)c4cnn5cc(OCC(F)F)ccc45)C3)C2)nn2ccccc12 (stereo partly shown) [Example 122, 2-{[(4s)-6-[6-(2,2-difluoroethoxy)pyrazolo[1,5-a]pyridine-3-amido]spiro[3.3]heptan-2-yl]oxy}pyrazolo[1,5-a]pyridine-3-carboxamide] | 117 nM
NC(=O)c1c(O[C@H]2C[C@@]3(C[C@H](NC(=O)c4cnn5cc(OCC(O)(C(F)(F)F)C(F)(F)F)ccc45)C3)C2)nn2ccccc12 (stereo partly shown) [Example 123, 2-{[(4s)-6-{6-[3,3,3-trifluoro-2-hydroxy-2-(trifluoromethyl)propoxy]pyrazolo[1,5-a]pyridine-3-amido}spiro[3.3]heptan-2-yl]oxy}pyrazolo[1,5-a]pyridine-3-carboxamide] | 241 nM
COc1ccc2c(C(N)=O)c(O[C@H]3C[C@@]4(C[C@H](NC(=O)c5nn(C(F)F)c6cc(OCC(C)(C)O)ccc56)C4)C3)nn2c1 (stereo partly shown) [Example 124, 1-(difluoromethyl)-6-(2-hydroxy-2-methylpropoxy)-N-[(4s)-6-({3-carbamoyl-6-methoxypyrazolo[1,5-a]pyridin-2-yl}oxy)spiro[3.3]heptan-2-yl]-1H-indazole-3-carboxamide] | 90.4 nM
COc1ccc2c(C(N)=O)c(O[C@H]3C[C@@]4(C[C@H](NC(=O)c5cnn6cc(OCC(F)F)ccc56)C4)C3)nn2c1 (stereo partly shown) [Example 125, 6-methoxy-2-{[(4s)-6-[6-(2,2-difluoroethoxy)pyrazolo[1,5-a]pyridine-3-amido]spiro[3.3]heptan-2-yl]oxy}pyrazolo[1,5-a]pyridine-3-carboxamide] | 316 nM
Cc1ccc2c(C(N)=O)c(O[C@H]3C[C@@]4(C[C@H](NC(=O)c5nn(C(F)F)c6cc(OCC(C)(C)O)ccc56)C4)C3)nn2c1 (stereo partly shown) [Example 126, 1-(difluoromethyl)-6-(2-hydroxy-2-methylpropoxy)-N-[(4s)-6-({3-carbamoyl-6-methylpyrazolo[1,5-a]pyridin-2-yl}oxy)spiro[3.3]heptan-2-yl]-1H-indazole-3-carboxamide] | 46.4 nM
NC(=O)c1c(O[C@H]2C[C@@]3(C[C@H](NC(=O)c4cnn5cc(OCC(F)F)ccc45)C3)C2)nn2cc(F)ccc12 (stereo partly shown) [Example 127, 6-fluoro-2-{[(4s)-6-[6-(2,2-difluoroethoxy)pyrazolo[1,5-a]pyridine-3-amido]spiro[3.3]heptan-2-yl]oxy}pyrazolo[1,5-a]pyridine-3-carboxamide] | 113 nM
CC(C)(O)COc1ccc2c(C(=O)N[C@H]3C[C@]4(C3)C[C@H](Oc3nn5cc(F)ccc5c3C(N)=O)C4)nn(C(F)F)c2c1 (stereo partly shown) [Example 128, 1-(difluoromethyl)-6-(2-hydroxy-2-methylpropoxy)-N-[(4s)-6-({3-carbamoyl-6-fluoropyrazolo[1,5-a]pyridin-2-yl}oxy)spiro[3.3]heptan-2-yl]-1H-indazole-3-carboxamide] | 83.2 nM
